In ChEMBL document CHEMBL1143513, “Structure-activity relationships for 2-anilino-6-phenylpyrido[2,3-d]pyrimidin-7(8H)-ones as inhibitors of the cellular checkpoint kinase Wee1” (Bioorg Med Chem Lett, 2005):

Columns and labels:
[1] = Inhibition of c-Src tyrosine kinase
Wee1-like protein kinase = Wee1-like protein kinase (Homo sapiens, UniProt P30291); assay: Inhibition of checkpoint kinase Wee1
[2] = Inhibition of Platelet-derived growth factor receptor
[3] = molecular target: Fibroblast growth factor receptor (Homo sapiens, UniProt P22607+P11362+P22455+P21802); assay: Inhibition of Fibroblast growth factor receptor; format: protein assay

Chain of Wee1-like protein kinase (P30291 whole entry): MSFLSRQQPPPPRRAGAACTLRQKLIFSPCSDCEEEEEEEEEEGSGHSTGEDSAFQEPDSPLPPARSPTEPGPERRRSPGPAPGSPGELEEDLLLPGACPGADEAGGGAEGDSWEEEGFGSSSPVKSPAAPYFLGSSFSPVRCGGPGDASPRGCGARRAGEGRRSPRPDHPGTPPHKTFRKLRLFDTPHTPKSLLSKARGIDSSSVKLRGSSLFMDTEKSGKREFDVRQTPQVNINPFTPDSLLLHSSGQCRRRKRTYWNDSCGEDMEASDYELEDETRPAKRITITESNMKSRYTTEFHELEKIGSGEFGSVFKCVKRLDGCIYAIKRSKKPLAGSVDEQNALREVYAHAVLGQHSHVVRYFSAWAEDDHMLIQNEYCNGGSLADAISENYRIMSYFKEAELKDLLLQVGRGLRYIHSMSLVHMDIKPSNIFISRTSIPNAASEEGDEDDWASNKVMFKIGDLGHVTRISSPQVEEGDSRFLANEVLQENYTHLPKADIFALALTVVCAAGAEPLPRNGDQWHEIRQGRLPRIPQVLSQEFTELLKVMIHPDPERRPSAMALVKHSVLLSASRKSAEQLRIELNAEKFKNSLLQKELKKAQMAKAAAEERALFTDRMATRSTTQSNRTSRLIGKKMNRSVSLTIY

| Compound | IC50 [1] [nM] | IC50 (Wee1-like protein kinase) [nM] | IC50 [2] [nM] | IC50 [3] [nM] |
| --- | --- | --- | --- | --- |
| Cn1c(=O)c(-c2c(Cl)cccc2Cl)cc2cnc(Nc3ccc(OCC(N)=O)cc3)nc21 | 14 | 250 | – | – |
| Cn1c(=O)c(-c2c(Cl)cc(N)cc2Cl)cc2cnc(Nc3ccccc3)nc21 | 270 | 3700 | – | – |
| CCN(CC)CCOc1ccc(Nc2ncc3c(C)c(-c4ccccc4Cl)c(=O)n(C)c3n2)cc1 | > 50000 | 550 | – | – |
| Cn1c(=O)c(-c2c(Cl)ccc(O)c2Cl)cc2cnc(Nc3ccccc3)nc21 | 9 | 74 | – | – |
| CC(C)(C)NC(=O)Nc1nc2nc(N)ncc2cc1-c1c(Cl)cccc1Cl | – | – | 1100 | – |
| Cn1c(=O)c(-c2c(Cl)cccc2Cl)cc2cnc(Nc3ccc(OCCCC(=O)O)cc3)nc21 | 4 | 86 | – | – |
| COc1cc(OC)cc(-c2cc3cnc(NCCCN4CCOCC4)nc3nc2NC(=O)NC(C)(C)C)c1 | > 50000 | – | – | 30 |
| Cn1c(=O)c(-c2c(Cl)cc(O)cc2Cl)cc2cnc(Nc3ccc(OCCCC(=O)O)cc3)nc21 | 6 | 40 | – | – |
| Cc1ccc(Cl)c(-c2cc3cnc(Nc4ccccc4)nc3n(C)c2=O)c1Cl | 2800 | 50000 | – | – |
| Cc1c(-c2ccccc2)c(=O)n(C)c2nc(Nc3ccccc3)ncc12 | > 50000 | > 50000 | – | – |
| Cn1c(=O)c(-c2c(Cl)cc(Cl)cc2Cl)cc2cnc(Nc3ccccc3)nc21 | 330 | 8600 | – | – |
| Cn1c(=O)c(-c2c(Cl)cccc2Cl)cc2cnc(Nc3ccc(CC(N)C(=O)O)cc3)nc21 (stereo not given) | 9 | 90 | – | – |
| Cn1c(=O)c(-c2c(F)cccc2Cl)cc2cnc(Nc3ccccc3)nc21 | 43 | 2400 | – | – |
| Cc1cccc(C)c1-c1cc2cnc(Nc3ccccc3)nc2n(C)c1=O | 14 | 990 | – | – |
| Cn1c(=O)c(-c2c(Cl)cccc2Cl)cc2cnc(Nc3ccccc3)nc21 | 24 | 2600 | – | – |
| Cn1c(=O)c(-c2c(Cl)ccc(CN)c2Cl)cc2cnc(Nc3ccccc3)nc21 | 62 | 31000 | – | – |
| CCN(CC)CCOc1ccc(Nc2ncc3cc(-c4c(C)cccc4C)c(=O)n(C)c3n2)cc1 | 23 | 990 | – | – |
| Cn1c(=O)c(-c2c(Cl)ccc(CO)c2Cl)cc2cnc(Nc3ccccc3)nc21 | 39 | 3500 | – | – |
| Cc1cc(O)cc(C)c1-c1cc2cnc(Nc3ccccc3)nc2n(C)c1=O | 17 | 580 | – | – |
| Cn1c(=O)c(-c2c(C(F)(F)F)cccc2C(F)(F)F)cc2cnc(Nc3ccccc3)nc21 | 8100 | 41000 | – | – |

| Compound | IC50 [1] [nM] | IC50 (Wee1-like protein kinase) [nM] | IC50 [2] [nM] | IC50 [3] [nM] |
| --- | --- | --- | --- | --- |
| Cn1c(=O)c(-c2c(Br)cccc2Br)cc2cnc(Nc3ccccc3)nc21 | 47 | 410 | – | – |
| Cn1c(=O)c(-c2c(Cl)cccc2Cl)cc2cnc(Nc3ccc(CCCC(=O)OCCN4CCOCC4)cc3)nc21 | 4 | 95 | – | – |
| Cn1c(=O)c(-c2c(O)cccc2O)cc2cnc(Nc3ccccc3)nc21 | 720 | 27000 | – | – |
| Cn1c(=O)c(-c2c(Cl)cccc2C(F)(F)F)cc2cnc(Nc3ccccc3)nc21 | 210 | > 50000 | – | – |
| COc1cccc(Cl)c1-c1cc2cnc(Nc3ccccc3)nc2n(C)c1=O | 120 | 3400 | – | – |
| COc1cc(OC)cc(-c2cc3cnc(N)nc3nc2NC(=O)NC(C)(C)C)c1 | – | – | > 50000 | – |
| Cn1c(=O)c(-c2c(Cl)c(O)cc(O)c2Cl)cc2cnc(Nc3ccccc3)nc21 | 11 | 140 | – | – |
| Cn1c(=O)c(-c2c(Cl)cccc2Cl)cc2cnc(Nc3ccc(CC(N)=O)cc3)nc21 | 13 | 120 | – | – |
| Cc1c(O)cc(O)c(C)c1-c1cc2cnc(Nc3ccccc3)nc2n(C)c1=O | 110 | 1000 | – | – |
| CC(=O)Nc1cc(Cl)c(-c2cc3cnc(Nc4ccccc4)nc3n(C)c2=O)c(Cl)c1 | 1500 | 3600 | – | – |
| Cn1c(=O)c(-c2c(Cl)ccc(C(=O)O)c2Cl)cc2cnc(Nc3ccccc3)nc21 | 280 | 3200 | – | – |
| Cn1c(=O)c(-c2c(Cl)cccc2Cl)cc2cnc(Nc3ccc(CCCC(=O)OCCN4CCCCC4)cc3)nc21 | 11 | 142 | – | – |
| Cn1c(=O)c(-c2c(Cl)ccc(Cl)c2Cl)cc2cnc(Nc3ccccc3)nc21 | 270 | > 50000 | – | – |
| COc1cc(Cl)c(-c2cc3cnc(Nc4ccccc4)nc3n(C)c2=O)c(Cl)c1 | 6500 | > 50000 | – | – |
| Cc1c(-c2ccccc2Cl)c(=O)n(C)c2nc(Nc3ccccc3)ncc12 | > 50000 | 410 | – | – |
| COc1cc(OC)c(C)c(-c2cc3cnc(Nc4ccccc4)nc3n(C)c2=O)c1C | 39000 | 33000 | – | – |
| Cc1cccc(C)c1-c1c(C)c2cnc(Nc3ccccc3)nc2n(C)c1=O | 15000 | 1200 | – | – |
| Cc1cccc(Br)c1-c1cc2cnc(Nc3ccccc3)nc2n(C)c1=O | 58 | 4500 | – | – |
| CCN(CC)CCOc1ccc(Nc2ncc3c(C)c(-c4c(C)cccc4C)c(=O)n(C)c3n2)cc1 | 360 | 540 | – | – |
| COc1cccc(OC)c1-c1cc2cnc(Nc3ccccc3)nc2n(C)c1=O | 980 | > 50000 | – | – |

| Compound | IC50 [1] [nM] | IC50 (Wee1-like protein kinase) [nM] | IC50 [2] [nM] | IC50 [3] [nM] |
| --- | --- | --- | --- | --- |
| COc1cc(OC)c(Cl)c(-c2cc3cnc(Nc4ccccc4)nc3n(C)c2=O)c1Cl | > 50000 | > 50000 | – | – |
| CCN(CC)CCOc1ccc(Nc2ncc3cc(-c4c(Cl)cccc4Cl)c(=O)n(C)c3n2)cc1 [PD-0166285] | – | – | 79000 | – |
| CC(=O)Nc1ccc(Cl)c(-c2cc3cnc(Nc4ccccc4)nc3n(C)c2=O)c1Cl | 780 | > 50000 | – | – |
| CN(C)CCOC(=O)CCCc1ccc(Nc2ncc3cc(-c4c(Cl)cccc4Cl)c(=O)n(C)c3n2)cc1 | 7 | 124 | – | – |
| Cn1c(=O)c(-c2c(Cl)ccc(N)c2Cl)cc2cnc(Nc3ccccc3)nc21 | 90 | 2600 | – | – |
| COc1ccc(Cl)c(-c2cc3cnc(Nc4ccccc4)nc3n(C)c2=O)c1Cl | 540 | > 50000 | – | – |
| Cn1c(=O)c(-c2c(Cl)cccc2Cl)cc2cnc(Nc3ccc(CCCCC(N)=O)cc3)nc21 | 28 | 260 | – | – |
| Cn1c(=O)c(-c2c(Cl)ccc(C(N)=O)c2Cl)cc2cnc(Nc3ccccc3)nc21 | 130 | 8600 | – | – |
| Cn1c(=O)c(-c2c(O)cccc2Cl)cc2cnc(Nc3ccccc3)nc21 | 22 | 1500 | – | – |
| Cn1c(=O)c(-c2c(Cl)cc(O)cc2Cl)cc2cnc(Nc3ccccc3)nc21 | 73 | 220 | – | – |
| Cn1c(=O)c(-c2c(Cl)cccc2Cl)cc2cnc(Nc3ccc(CCCC4N=NN=N4)cc3)nc21 | 25 | 69 | – | – |
| Cn1c(=O)c(-c2c(Cl)cccc2Cl)cc2cnc(Nc3ccc(CCC(N)=O)cc3)nc21 | 30 | 190 | – | – |
| COc1cc(C)c(-c2cc3cnc(Nc4ccccc4)nc3n(C)c2=O)c(C)c1 | 250 | > 50000 | – | – |
| COc1cccc(O)c1-c1cc2cnc(Nc3ccccc3)nc2n(C)c1=O | 50 | 11000 | – | – |
| CCN(CC)CCOc1ccc(Nc2ncc3cc(-c4c(Cl)ccc(O)c4Cl)c(=O)n(C)c3n2)cc1 | 6 | 150 | – | – |
| Cn1c(=O)c(-c2c(F)cccc2F)cc2cnc(Nc3ccccc3)nc21 | 66 | 9700 | – | – |
| Cc1cccc(Cl)c1-c1cc2cnc(Nc3ccccc3)nc2n(C)c1=O | 12 | 1900 | – | – |
| Cn1c(=O)c(-c2c(Cl)ccc(O)c2Cl)cc2cnc(Nc3ccc(OCCCC(=O)O)cc3)nc21 | 99 | 40 | – | – |
| CCN(CC)CCOc1ccc(Nc2ncc3cc(-c4c(Cl)cc(O)cc4Cl)c(=O)n(C)c3n2)cc1 | 8 | 80 | – | – |
